Assay results taken from article PMC3410885, “6-Arylpyrido[2,3-d]pyrimidines as Novel ATP-Competitive Inhibitors of Bacterial D-Alanine:D-Alanine Ligase” (PLoS ONE, 2012).
Values after ≈ are worked out from the molar mass of the structure shown. Like-named read-outs stand apart in the source and are kept apart here.

Tests used:
E. coli DdlB = molecular target: T1, E. coli DdlB (Escherichia coli, UniProt P07862); experiment: Colorimetric malachite green inhibition assay of DdlB; format: biochemical; conditions: malachite green assay; 700 μM D-Ala, 500 μM ATP, 37°C, 20 min; read-out: inhibitory activity on DdlB: IC50
T1 construct: polyhistidine (His) tag (N); made in house; host or cells: E. coli BL21(λDE3), vector pQE-30 UA (Qiagen)
Protocol: All of the synthesized 6-arylpyrido[2,3-d]pyrimidines 11–36 were assayed for in vitro inhibitory activity on E. coli DdlB by detecting orthophosphate generated during the enzymatic reaction using a Malachite green assay.
Inhibition of DdlB was measured at different inhibitor and ATP concentrations in order to determine Ki values and the mode-of-action of both compounds.
The target compounds were tested for their ability to inhibit the D-Ala-adding activity of DdlB ligase with the colorimetric malachite green method in which orthophosphate generated during the reaction is measured. Each compound was tested in duplicate at 100, 250 or 500 μM in a mixture, final volume 50 μL, containing 50 mM Hepes (pH 8.0), 5 mM MgCl2, 10 mM (NH4)2SO4, 10 mM KCl, 700 μM D-Ala, 500 μM ATP, purified His-tagged DdlB (diluted in 50 mM Hepes (pH 7.2) and 1 mM DTT) and the test compound dissolved in DMSO. The final concentration of DMSO was 5% (v/v). The reaction mixture was incubated at 37°C for 20 min, then quenched with 100 μL of Biomol reagent and absorbance at 650 nm was measured after 5 min. To exclude possible promiscuous inhibitors, all compounds were tested in the presence of Triton-114 (0.005%). Residual activities were calculated relative to control assays without the compounds and with DMSO.

[1] = system: ES100 (tolC deficient derivative of AB734); experiment: MIC by broth microdilution, ES100; format: cell-based, E. coli; conditions: for MIC: Escherichia coli, read-out: MIC ES100 (tolC); for MIC ES100 +PMBN: with polymyxin B nonapeptide (4 μg/ml)
Protocol: (§1) Selected DdlB inhibitors were tested for their antibacterial activity against two E. coli strains E. coli 1411 and E. coli AB734 (Table 2). […] Additionally, growth inhibition of efflux pump-deficient strains SM1411 (acrAB deficient derivative of 1411) and ES100 (tolC deficient derivative of AB734) was measured, and MICs were repeated for each strain in the presence of polymyxin B nonapeptide (PMBN) to assess the impact of outer-membrane permeability on antimicrobial activity.
(§2) Minimum inhibitory concentrations (MICs) were determined by broth microdilution against E. coli 1411, SM1411 (acrAB deficient derivative of 1411), AB734 and ES100 (tolC deficient derivative of AB734) according to CLSI guidelines. MICs were repeated for each strain in the presence of polymyxin B nonapeptide (4 μg/ml) to assess the impact of outer-membrane permeability on antimicrobial activity.

[2] = system: SM1411 (acrAB deficient derivative of 1411); experiment: MIC by broth microdilution, SM1411; format: cell-based, E. coli; conditions: for MIC: Escherichia coli, read-out: MIC SM1411 (acrAB); for MIC SM1411 +PMBN: with polymyxin B nonapeptide (4 μg/ml)
Protocol: as §1, §2

E. coli 1411 = experiment: MIC by broth microdilution, E. coli 1411; format: cell-based; conditions: for MIC: Escherichia coli, 1411, read-out: MIC 1411; for MIC 1411 +PMBN: with polymyxin B nonapeptide (4 μg/ml)
Protocol: as §1, §2

[3] = system: E. coli strains (1411, AB734, SM1411, ES100); experiment: Antibacterial activity stated for the E. coli strains together; format: cell-based; conditions: efflux-deficient, permeabilised cells
Protocol: as §1, §2

E. coli AB734 = experiment: MIC by broth microdilution, E. coli AB734; format: cell-based; conditions: for MIC: Escherichia coli; for MIC AB734 +PMBN: with polymyxin B nonapeptide (4 μg/ml)
Protocol: as §1, §2

DdlB = molecular target: T2, DdlB (Escherichia coli, UniProt P07862); experiment: Surface plasmon resonance binding to immobilised DdlB; conditions: steady-state affinity model; 25°C; 50 mM Hepes, 150 mM NaCl, 5% DMSO; read-out: KD (SPR)
T2 construct: polyhistidine (His) tag (N); made in house; host or cells: E. coli BL21(λDE3), vector pQE-30 UA (Qiagen)
Protocol: The binding of the compounds 11, 13, 14, 24, 27, 33, and 35 to the target enzyme was confirmed using surface plasmon resonance (SPR) (Figure 10). Experiments were performed at conditions that enable long term stability of the enzyme. […] The enzyme was covalently attached to the surface of a sensor chip CM5 and compounds were titrated over the surface. The binding of all the compounds was characterised by fast association and dissociation rates. Equilibrium affinity constants, estimated from the steady-state binding levels are in agreement with enzymatic studies and ITC. In addition, the binding of other compounds was tested but insufficient solubility at higher concentrations of analytes in the running buffer precluded analysis.
Figure 10 SPR analysis of compounds binding to DdlB. Different concentrations of compounds were tested for the binding (left panels in all cases). The binding curves (right panels) were generated by ploting steady-state response levels, i.e. at the end of the association phase, vs concentration of the injected compound. For each compound 3–5 independent titrations were performed.
The binding constants were obtained by using a Biacore T100 (Biacore, GE Healthcare, USA). […] Two 1 min injections of 50 μg/ml DdlB diluted in 10 mM Na-acetate, pH 4.0 were applied on the second flow cell. The first flow cell was left unmodified and served as a control for non-specific binding of tested compounds. The remaining active groups on the surface of both flow cells were deactivated with a 7-min injection of ethanolamine. The level of immobilized enzyme was around 10000 response units.
Each analyte was titrated, with 3 or 4 repetitions, using different concentrations according to their solubility in running buffer (50 mM Hepes, 150 mM NaCl, 5% DMSO, pH 7.4), usually from 0,781 μM to 500 μM. One concentration was repeated at the end of the assay in each dilution series, in order to check the surface stability and repeatability. The association lasted 60 seconds at a flow-rate 30 μl/min. No regeneration was needed. All experiments were performed at 25°C. Sensorgrams were double referenced by subtracting the signal obtained in the empty flow cell and the injection of the buffer. The steady-state response levels were fitted using the Steady State Affinity model in Biacore T100 Evaluation software.

| SMILES | melting point [°C] | IC50 (E. coli DdlB) [µM] | MIC [1] [µg/mL] | MIC ES100 +PMBN [1] | MIC [2] [µg/mL] | MIC SM1411 +PMBN [2] | MIC (E. coli 1411) [µg/mL] | MIC 1411 +PMBN (E. coli 1411) [µg/mL] | MIC AB734 +PMBN (E. coli AB734) [µg/mL] | further results |
| --- | --- | --- | --- | --- | --- | --- | --- | --- | --- | --- |
| CC(C)(C)NC(=O)Nc1nc2nc(N)ncc2cc1-c1cc(Cl)cc(Cl)c1 [Compound 23, 1-(2-amino-6-(3,5-dichlorophenyl)pyrido[2,3-d]pyrimidin-7-yl)-3-tert-butylurea] | 179 to 182 | 383 | > 256 | 16 µg/mL (≈ 39.5 µM) | > 256 | 32 µg/mL (≈ 79 µM) | > 256 | >256 | >256 | antibacterial activity (in words) [3]: weak antibacterial activity; MIC (E. coli AB734; AB734, read-out: MIC AB734): > 256 µg/mL |
| Nc1ncc2cc(-c3c(F)cccc3F)c(N)nc2n1 [Compound 24, 6-(2,6-difluorophenyl)pyrido[2,3-d]pyrimidine-2,7-diamine] | > 300 | 1110 | 16 (≈ 58.6 µM) | 8 µg/mL (≈ 29.3 µM) | 64 (≈ 234 µM) | 8 µg/mL (≈ 29.3 µM) | 64 (≈ 234 µM) | 16 (≈ 58.6 µM) | 16 (≈ 58.6 µM) | Kd (DdlB): 103 ± 7.8 µM; MIC 1411 (E. coli 1411; without PMBN): 64 µg/mL (≈ 234 µM); MIC (E. coli AB734; AB734, without PMBN, read-out: MIC AB734): 64 µg/mL (≈ 234 µM); MIC AB734 (E. coli AB734; without PMBN): 64 µg/mL (≈ 234 µM) |
| Nc1ncc2cc(-c3c(Cl)cccc3Cl)c(N)nc2n1 [Compound 26, 6-(2,6-dichlorophenyl)pyrido[2,3-d]pyrimidine-2,7-diamine] |  | 529 | 1 (≈ 3.27 µM) | 0,25 μg/ml | 2 (≈ 6.53 µM) | 0,5 μg/ml |  |  |  |  |
| Nc1nc2nc(NCCCN3CCOCC3)ncc2cc1-c1c(Cl)cccc1Cl [Compound 28, 6-(2,6-dichlorophenyl)-N2-(3-morpholinopropyl)pyrido[2,3-d]pyrimidine-2,7-diamine] | 124 to 127 |  |  |  |  |  |  |  |  |  |
| CN(C)CCCNc1ncc2cc(-c3c(Cl)cccc3Cl)c(N)nc2n1 [Compound 30, 6-(2,6-dichlorophenyl)-N2-(3-(dimethylamino)propyl)pyrido[2,3-d]pyrimidine-2,7-diamine] | 241 to 244 |  |  |  |  |  |  |  |  |  |
| Nc1ncc2cc(-c3c(F)cccc3Cl)c(N)nc2n1 [Compound 31, 6-(2-chloro-6-fluorophenyl)pyrido[2,3-d]pyrimidine-2,7-diamine] | > 300 |  |  |  |  |  |  |  |  |  |
| CC(C)(C)NC(=O)Nc1nc2nc(N)ncc2cc1-c1c(F)cccc1Cl [Compound 32, 1-(2-amino-6-(2-chloro-6-fluorophenyl)pyrido[2,3-d]pyrimidin-7-yl)-3-tert-butylurea] | > 300 |  |  |  |  |  |  |  |  |  |
| CC(C)(C)NC(=O)Nc1nc2nc(N)ncc2cc1-c1c(Br)cccc1Br [Compound 34, 1-(2-amino-6-(2,6-dibromophenyl)pyrido[2,3-d]pyrimidin-7-yl)-3-tert-butylurea] |  | 583 | 4 (≈ 8.09 µM) | 0,5 μg/ml | > 256 | 4 µg/mL (≈ 8.09 µM) | > 256 | 32 (≈ 64.8 µM) | 32 (≈ 64.8 µM) | antibacterial activity (in words) [3]: weak antibacterial activity; MIC (E. coli AB734; AB734, read-out: MIC AB734): > 256 µg/mL |
| CC(C)(C)NC(=O)Nc1nc2nc(N)ncc2cc1-c1ccc2c(c1)OCO2 [Compound 36, 1-(2-amino-6-(benzo[d][1,3]dioxol-5-yl)pyrido[2,3-d]pyrimidin-7-yl)-3-tert-butylurea] | > 300 |  |  |  |  |  |  |  |  |  |
